Several values for one entry are separate records, joined by “and”; a condition that tells them apart may be missing. Equal entries are not always repeated.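 Compound exposure: 48 hours, 5 concentrations, 96-well plates. Abbreviation: GI50, concentration required for 50% inhibition of growth. Definition used: TGI = concentration required for complete inhibition of growth.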

Test systems include SK-MEL-2 melanoma; NCI-H522 lung; IGROV1 ovarian; OVCAR-4 ovarian; UACC-62 melanoma; M14 melanoma; SNB-19 CNS; KM12 colon; HOP-62 NSCLC; K-562 leukemia.
Common to all, as to test: NCI-60 cell line screen, 48 h

Turning to `O=C(c1ccccn1)C1(N2CCCCC2)CCCCC1`, the TGI is more than 100 µM with SK-MEL-2 melanoma; 37 µM in the experiment with NCI-H522 lung; more than 100 µM in the experiment with IGROV1 ovarian; more than 100 µM with OVCAR-4 ovarian; more than 100 µM in the experiment on UACC-62 melanoma; more than 100 µM with M14 melanoma. The TGI in the experiment with SNB-19 CNS, in the experiment with KM12 colon, with HOP-62 NSCLC and in the experiment on K-562 leukemia was more than 100 µM in each case.
For the compound `O=C(NCc1ccccc1)c1n[nH][nH]c1=O`, the TGI with SK-MEL-2 melanoma, in the experiment with NCI-H522 lung, in the experiment on IGROV1 ovarian, in the experiment with OVCAR-4 ovarian, in the experiment with UACC-62 melanoma and with M14 melanoma was more than 100 µM in each case. The TGI in the experiment with SNB-19 CNS, in the experiment with KM12 colon, in the experiment with HOP-62 NSCLC and in the experiment with K-562 leukemia was more than 100 µM in each case.
Take `Cn1c(=O)c2c(nc3n2CC(C(=O)O)N3)n(C)c1=O` (centres undefined): the TGI with SK-MEL-2 melanoma, with NCI-H522 lung, in the experiment with IGROV1 ovarian, in the experiment on OVCAR-4 ovarian, in the experiment on UACC-62 melanoma and in the experiment on M14 melanoma was more than 100 µM throughout. Also, the TGI in the experiment with SNB-19 CNS, in the experiment with KM12 colon, in the experiment with HOP-62 NSCLC and with K-562 leukemia was more than 100 µM each time.
On to `c1ccc2c(c1)Cn1c-2nc2ccccc21`, for which the TGI with SK-MEL-2 melanoma, in the experiment with NCI-H522 lung, in the experiment with IGROV1 ovarian, with OVCAR-4 ovarian, in the experiment on UACC-62 melanoma and in the experiment with M14 melanoma was more than 100 µM in each case. For the same compound, the TGI in the experiment with SNB-19 CNS, with KM12 colon, with HOP-62 NSCLC and with K-562 leukemia was more than 100 µM in each case.
Turning to `Nc1nc2c(c(-c3cccc(Cl)c3)n1)COC/C2=C\c1cccc(Cl)c1`, the TGI with SK-MEL-2 melanoma, in the experiment on NCI-H522 lung, in the experiment on IGROV1 ovarian, in the experiment with OVCAR-4 ovarian, in the experiment with UACC-62 melanoma and in the experiment with M14 melanoma was more than 100 µM each time. For the same compound, the TGI with SNB-19 CNS, in the experiment with KM12 colon, in the experiment with HOP-62 NSCLC and in the experiment on K-562 leukemia was more than 100 µM throughout.
Consider `Cc1ccc(-c2cc(-c3ccco3)c(C#N)c(=S)n2C2OC(CO)C(O)C(O)C2O)cc1` (centres undefined), for which the GI50 was 39.3 µM and > 100 µM with SK-MEL-2 melanoma; 29.5 µM and 65.4 µM with NCI-H522 lung; 21.4 µM and 47.1 µM in the experiment on IGROV1 ovarian; 14.5 µM and > 100 µM in the experiment with OVCAR-4 ovarian; 6.31 µM and 28 µM with HOP-62 NSCLC. In addition, the TGI with SK-MEL-2 melanoma was more than 100 µM; with NCI-H522 lung it was more than 100 µM; with IGROV1 ovarian it was 74.5 µM and > 100 µM; in the experiment on OVCAR-4 ovarian, 53.6 µM and > 100 µM; with UACC-62 melanoma it was 13.3 µM and > 100 µM; with M14 melanoma it was 68.2 µM and 75.7 µM. The TGI in the experiment with SNB-19 CNS was more than 100 µM; with KM12 colon, 76.9 µM and > 100 µM; in the experiment on HOP-62 NSCLC, 54.1 µM and > 100 µM; in the experiment on K-562 leukemia it was more than 100 µM.
Take `C=C1CCN2CC[C@@H](OC(=O)/C(C)=C\C)[C@@H]12`: the TGI with SK-MEL-2 melanoma, with NCI-H522 lung, in the experiment with IGROV1 ovarian, in the experiment on OVCAR-4 ovarian, in the experiment on UACC-62 melanoma and in the experiment with M14 melanoma was more than 100 µM each time. The TGI in the experiment with SNB-19 CNS, in the experiment on KM12 colon, in the experiment on HOP-62 NSCLC and with K-562 leukemia was more than 100 µM in each case.
For the compound `Cn1c2ccc3cc2c(=S)c2cc(ccc21)OCCOCCOCCOCCOCCOCCO3`, the TGI in the experiment on SK-MEL-2 melanoma, with NCI-H522 lung, in the experiment with IGROV1 ovarian, in the experiment with OVCAR-4 ovarian, in the experiment on M14 melanoma and in the experiment on SNB-19 CNS was more than 10 µM throughout. Moreover, the TGI with KM12 colon, in the experiment on HOP-62 NSCLC and with K-562 leukemia was more than 10 µM each time.
Take `O=c1[nH]c(=S)[nH]c2c1C(c1ccc([N+](=O)[O-])cc1)c1c([nH]c(=S)[nH]c1=O)O2`: the TGI with SK-MEL-2 melanoma, in the experiment with NCI-H522 lung, in the experiment with IGROV1 ovarian, with OVCAR-4 ovarian, with UACC-62 melanoma and in the experiment on M14 melanoma was more than 100 µM throughout. Also, the TGI with SNB-19 CNS, with KM12 colon, in the experiment with HOP-62 NSCLC and in the experiment with K-562 leukemia was more than 100 µM in each case.
On to `COc1ccc(N=NC(=Nc2ccccc2)c2ccc(N(CCC#N)CCC#N)cc2)cc1`, for which the TGI in the experiment on SK-MEL-2 melanoma was more than 100 µM; in the experiment with NCI-H522 lung, 69.1 µM; with IGROV1 ovarian it was 89.3 µM; with OVCAR-4 ovarian, more than 100 µM; in the experiment on UACC-62 melanoma, more than 100 µM; in the experiment on M14 melanoma it was more than 100 µM. Also, the TGI in the experiment with SNB-19 CNS, in the experiment with KM12 colon, with HOP-62 NSCLC and in the experiment on K-562 leukemia was more than 100 µM in each case.
Turning to `[N-]=[N+]=NC(c1ccccc1)(c1ccccc1)c1ccccc1`, the TGI with SK-MEL-2 melanoma worked out at 29.3 µM; in the experiment with NCI-H522 lung, 33.5 µM; with IGROV1 ovarian it was 63.7 µM; with OVCAR-4 ovarian it was 57.9 µM; in the experiment with UACC-62 melanoma, 31.4 µM; in the experiment with M14 melanoma, 35.5 µM. For the same compound, the TGI in the experiment on SNB-19 CNS turned out to be 39.5 µM; with KM12 colon, 46.8 µM; in the experiment with HOP-62 NSCLC, 42.2 µM; with K-562 leukemia, 42.5 µM.
For `C[C@]12CC[C@H](O)CC1=CC[C@@H]1[C@@H]2CC[C@]2(C)C(=N/N)/C(=N\O)C[C@@H]12`, the TGI was more than 100 µM in the experiment on SK-MEL-2 melanoma; more than 100 µM in the experiment with NCI-H522 lung; 75.7 µM in the experiment with IGROV1 ovarian; more than 100 µM in the experiment with OVCAR-4 ovarian; more than 100 µM in the experiment with UACC-62 melanoma; more than 100 µM in the experiment on M14 melanoma. Besides, the TGI in the experiment with SNB-19 CNS, in the experiment on KM12 colon, in the experiment on HOP-62 NSCLC and in the experiment on K-562 leukemia was more than 100 µM in each case.
Regarding `COC(=O)c1c(C)nc2c1cc(O)c1[nH]c(C)c(C)nc12`, the TGI in the experiment with SK-MEL-2 melanoma, in the experiment on NCI-H522 lung, with IGROV1 ovarian, with OVCAR-4 ovarian, in the experiment with UACC-62 melanoma and in the experiment on M14 melanoma was more than 100 µM each time. Besides, the TGI with SNB-19 CNS was more than 100 µM; in the experiment on KM12 colon, more than 100 µM; in the experiment with HOP-62 NSCLC, 71.7 µM; with K-562 leukemia, more than 100 µM.

Source of the values: PubChem BioAssay (NCI).
